The source of these data is patent US5108900A, “Monoclonal antibodies to synthetic pyrethroids and method for detecting the same” (Regents of the University of California, priority 1989, dated 1992).

The test system of data set [1] is Antibodies selected for their binding to the analog hapten of permethrin. Put plainly: Antibody response to hapten and related pyrethroids. Also noted: species or system mouse. The text has this: Synthetic pyrethroids are small organic molecules, and in an effort to render such a molecule immunogenic, it was necessary to conjugate such molecules to carrier protein. Various modifications of synthetic pyrethroids can be made to achieve this purpose.

In another data set the test system is monoclonal antibody Py-1. Put plainly: Competition ELISA (cELISA), monoclonal antibody Py-1, 3-pba-BSA coated plates. It is filed as binding, mouse. To be noted: for Average 50% inhibition values (I50), Py-1: Table I, averages from at least 12 assays; for Average 50% inhibition values (I50), Py-1 / I50 values observed for competitors (FIG. 4): Py-1. The procedure: (§1) The binding specificities of antibodies to standards and assay samples were evaluated by competition ELISA assays. In a competition assay system, an antigen, which is a large molecule with protein or carbohydrate moieties which can precisely bind with steric interaction with the conformation of the antibodies is fixed to the reaction surface of a test plate, and antigen-specific antibody is added along with an aliquot of sample extract or standard test solution. The free-floating antibody partitions between the fixed antigen bound to the test reaction surface and the antigen of the added sample or standard which is free-floating in the solution. After a reaction period, the free-floating antigen-antibody complex is washed away. The plate is rewashed and incubated with an enzyme-tagged indicator molecule which will immunospecifically bind to proteins of the animal species which was the source of the pyrethroid-specific antibodies. Substrate and buffer are provided for the reaction of the enzyme-tagged indicator molecule. The optical signal from the enzyme substrate reaction indicates the amount of pyrethroid-specific antibody which remains bound to the immobilized antigen on the reaction plate. The utility of such a reaction system is dependent on the surface binding of the antigenic hapten-protein complex. The sensitivity of such a binding system can be amplified by coupling the enzyme reaction endpoint to a biotin-avidin complex. Optimal enzyme sensitivity occurs when a minimal amount of coating antigen (3-pba-BSA) is used.
(§2) A competition enzyme-linked immunosorbent assay (c-ELISA) was developed to quantify permethrin standards in solution and to assess the specificity of the antibodies for various natural and synthetic pyrethroids. […] The 3-pba conjugate could be prepared by using EDC (1-ethyl-3-(3-dimethylaminopropyl)carbodiimide) as a cross-linking agent. The 3-pba conjugate was used as the coating agent for all subsequent experiments. Microtiter plates were coated with 0.5 μg/well 3-pba-BSA and blocked with ovalbumin.
(§3) In the competition ELISA, the competitors were dissolved in acetonitrile and were added to phosphate-buffered saline(PBS)-Tween buffer such that the resulting solution was 6% acetonitrile. Competitor was added so that each well contained 100 μl of competitor in a 6% acetonitrile-PBS solution. An equal volume of PBS containing monoclonal antibody was added such that there was a final concentration assay buffer containing antibody and competitor. These antibodies can tolerate up to 5% acetonitrile without loss of activity. The plates were incubated for one hour at 37° C. and the endpoint assessed by observation of the color change of p-nitrophenyl phosphate substrate actuated by alkaline phosphatase conjugated to goat anti-mouse antibody.
(§4) Because the sensitivity of c-ELISA's can be influenced by both the amount of specific anti-hapten antibody used and the amount of immobilized antigen, both of these parameters were optimized. In the preferred method, the amount of antigen used to coat the microtiter plates was varied from 10-0.5 μg/well, with 0.5 μg/well being more preferred. The method of application of the antigen to the plate was important to the assay. Antigen could be absorbed onto the wells overnight at 4° C. or antigen could be allowed to evaporate from the antigen solution onto the wells at 37° C. Using Py-1 antibody and permethrin as competitor, maximal sensitivity was observed when the antigen was allowed to evaporate onto the wells. In the preferred method microliter plates were prepared by evaporation of 100 μl of a 5 μg/mL solution of coating antigen (3-pba-BSA) at 37° C..
The antibody Py-1 was titrated against immobilized antigen (0.5 μg […]/well) in a direct binding ELISA. At a Py-1 antibody concentration of 0.02 μg/well, the level used in subsequent cELISA's, 40% of the plateau activity was reached. […]

Another data set has as its system monoclonal antibody Py-4. As to the kind of experiment: Competition ELISA (cELISA), monoclonal antibody Py-4, 3-pba-BSA coated plates. It is filed as binding, mouse. To be noted: for Average 50% inhibition values (I50), Py-4: Table I, averages from at least 12 assays. Here is the method:
as §1, §2, §3
as §4, with “C.. […]” for “C..”
(§5) The competition ELISA data was normalized using 100% activity as the optical density in wells in which antibody bound to the solid phase antigen (3-pba-BSA) in the absence of any competitor. The test wells, each containing different amounts of competitor, were normalized to the 100% activity wells. […]
For orientation: An ELISA detects its analyte on a solid surface through an enzyme-linked reagent.

The next data set concerns monoclonal antibody Py-3. Put plainly: Competition ELISA (cELISA), monoclonal antibody Py-3, 3-pba-BSA coated plates. In kind it is binding, mouse. The note with it: for Average 50% inhibition values (I50), Py-3: Table I, averages from at least 12 assays. The procedure:
as §1, §2, §3
as §4, with “C.. […]” for “C..”
as §5

For data set [2] the following is noted: background; cited from earlier work.
For data set [3] the following is noted: cited from earlier work; for mammalian toxicity: background; for oncogenicity listing by U.S. Environmental Protection Agency: Regulating Pesticides in Food: The Delaney Paradox, 1987.

As to `CC1(C)C(C(=O)O)C1C(=O)OCc1cccc(Oc2ccccc2)c1` (stereo not shown) [Hapten], in data set [1], the responsiveness of antibodies entry is “similarly responsive”. Further, in the data set with monoclonal antibody Py-1, the “Average 50% inhibition values (I50), Py-1” value amounted to 2 nanograms. Besides, in the data set with monoclonal antibody Py-4, the “Average 50% inhibition values (I50), Py-4” value is given as 0.6 nanograms. For the same compound, in the data set with monoclonal antibody Py-3, the “Average 50% inhibition values (I50), Py-3” value worked out at 0.3 nanograms.
As to `CC(C)=CC1C(C(=O)OCc2cccc(Oc3ccccc3)c2)C1(C)C` (mixture of isomers) [Phenothrin, 3-phenoxybenzyl(lRS)cis,transchrysanthemate], in data set [1], the responsiveness of antibodies entry was “similarly responsive”. For the same compound, in the data set on monoclonal antibody Py-1, the “I50 values observed for competitors (FIG. 4)” value (shortened to “I50 values observed”) worked out at 1.5 ng/well and the “Average 50% inhibition values (I50), Py-1” value came out at 1.5 nanograms. Also, in the data set with monoclonal antibody Py-4, the “Average 50% inhibition values (I50), Py-4” value was determined as 6 nanograms. Moreover, in the data set on monoclonal antibody Py-3, the “Average 50% inhibition values (I50), Py-3” value is reported as 0.5 nanograms.
With `C=CCC1=C(C)C(OC(=O)[C@@H]2[C@@H](C=C(C)C)C2(C)C)CC1=O` (stereo partly shown) [bioallethrin], the “stability in the air and water” value in data set [2] was “unstable character”.
On to `CC(C)C(C(=O)OC(C#N)c1cccc(Oc2ccccc2)c1)c1ccc(Cl)cc1` (stereo not shown) [Fenvalerate, cyano(3-phenoxyphenyl)methyl 4-chloroalpha-(1-methylethyl)benzeneacetate], for which, in the data set with monoclonal antibody Py-1, the “I50 values observed” value is 350 ng/well and the “Average 50% inhibition values (I50), Py-1” value is 350 nanograms. The “Average 50% inhibition values (I50), Py-4” value in the data set with monoclonal antibody Py-4 is given as 4000 nanograms. Besides, the “Average 50% inhibition values (I50), Py-3” value in the data set with monoclonal antibody Py-3 is reported as 160 nanograms.
Turning to `CC1(C)[C@H](C(=O)O[C@H](C#N)c2cccc(Oc3ccccc3)c2)[C@@H]1C=C(Br)Br` (racemic) [Deltamethrin, -/+alpha-cyano-3-phenoxybenzyl-(+/-)-cis,trans-3-(2,2-dibromovinyl)-2,2-dimethylcyclopropanecarboxylate], the mammalian toxicity result in data set [3] is “low mammalian toxicity”. Further, in data set [2], the stability result was “more stable”. Moreover, in the data set on monoclonal antibody Py-1, the “I50 values observed” value turned out to be 15 ng/well and the “Average 50% inhibition values (I50), Py-1” value came out at 15 nanograms. In addition, the “Average 50% inhibition values (I50), Py-4” value in the data set with monoclonal antibody Py-4 is reported as 10 nanograms. Moreover, in the data set with monoclonal antibody Py-3, the “Average 50% inhibition values (I50), Py-3” value is reported as 10 nanograms.
Take `CC1(C)C(C=C(Cl)Cl)C1C(=O)OCc1cccc(Oc2ccccc2)c1` [Permethrin (trans isomers)]: in the data set on monoclonal antibody Py-1, the “Average 50% inhibition values (I50), Py-1” value amounted to 1.7 nanograms.
Consider `O=C(O)c1cccc(Oc2ccccc2)c1` [3-Phenoxybenzoic acid], for which the “Average 50% inhibition values (I50), Py-1” value with monoclonal antibody Py-1 is 200 nanograms. The “Average 50% inhibition values (I50), Py-4” value in the data set on monoclonal antibody Py-4 is 330 nanograms. The “Average 50% inhibition values (I50), Py-3” value with monoclonal antibody Py-3 is 140 nanograms.
For `CC(C)=CC1C(C(=O)O)C1(C)C` (stereo not shown) [Chrysanthemic acid], in the data set with monoclonal antibody Py-1, the “Average 50% inhibition values (I50), Py-1” value was over 600 nanograms.
With `CC1(C)C(C(=O)OC(C#N)c2cccc(Oc3ccccc3)c2)C1(C)C` (stereo not drawn) [Fenpropathrin, alpha-cyano-3-phenoxybenzyl-2,2,3,3-tetramethylcyclopropanecarboxylate], in the data set with monoclonal antibody Py-1, the “Average 50% inhibition values (I50), Py-1” value is recorded as 17 nanograms. Besides, in the data set on monoclonal antibody Py-4, the “Average 50% inhibition values (I50), Py-4” value was 25 nanograms. Also, the “Average 50% inhibition values (I50), Py-3” value with monoclonal antibody Py-3 was determined as 10 nanograms.
For the compound `CC1(C)C(C=C(Cl)Cl)C1C(=O)OC(C#N)c1cccc(Oc2ccccc2)c1` (mixture of isomers) [Cypermethrin, alpha-cyano-3-phenoxybenzyl cis, trans-3-(2,2-dichlorovinyl)-2,2-dimethylcyclopropanecarboxylate], in data set [3], the “oncogenicity listing by U.S. Environmental Protection Agency” value was “potentially oncogenic” and the mammalian toxicity entry is listed as “low mammalian toxicity”. The stability entry in data set [2] was “more stable”. In addition, in the data set with monoclonal antibody Py-1, the “I50 values observed” value is 30 ng/well and the “Average 50% inhibition values (I50), Py-1” value came to 30 nanograms. Moreover, the “Average 50% inhibition values (I50), Py-4” value in the data set on monoclonal antibody Py-4 is reported as 22 nanograms. In the data set on monoclonal antibody Py-3, the “Average 50% inhibition values (I50), Py-3” value was 20 nanograms.
Turning to `CC1(C)C(C=C(Cl)Cl)C1C(=O)OCc1cccc(Oc2ccccc2)c1` (mixture of isomers) [Permethrin, 3-phenoxybenzyl (lRS),cis,trans-3(2,2-dichlorovinyl)-2,2-dimethylcyclopropanecarboxylate], in data set [3], the “oncogenicity listing by U.S. Environmental Protection Agency” value is listed as “potentially oncogenic” and the mammalian toxicity result was “low mammalian toxicity”. Also, in data set [2], the stability result is recorded as “more stable”. Also, the responsiveness of antibodies result in data set [1] was “similarly responsive”. For the same compound, in the data set with monoclonal antibody Py-1 (FIG. 3, in words), the “concentration which caused a 50% inhibition (I50) of antibody activity, Py-1” value is recorded as “low nanogram range”. Further, the “I50 values observed” value with monoclonal antibody Py-1 is given as 1.7 ng/well. Besides, the “50% inhibition value, Py-1” value with monoclonal antibody Py-1 (Table 1, ng of competitor) was 1.5 ng. Also, the “Average 50% inhibition values (I50), Py-1” value in the data set on monoclonal antibody Py-1 (listed as Permethrin (mixed isomers)) was 1.5 nanograms. Also, the “concentration which caused a 50% inhibition (I50) of antibody activity, Py-4” value with monoclonal antibody Py-4 (FIG. 3, in words) was “low nanogram range”. The “50% inhibition value, Py-4” value in the data set on monoclonal antibody Py-4 (Table 1, ng of competitor) is 12 ng. In addition, the “Average 50% inhibition values (I50), Py-4” value in the data set with monoclonal antibody Py-4 was determined as 12 nanograms. Moreover, the “concentration which caused a 50% inhibition (I50) of antibody activity, Py-3” value with monoclonal antibody Py-3 (FIG. 3, in words) is on record as “low nanogram range”. For the same compound, the “50% inhibition value, Py-3” value in the data set on monoclonal antibody Py-3 (Table 1, ng of competitor) turned out to be 1.7 ng. Moreover, in the data set on monoclonal antibody Py-3, the “Average 50% inhibition values (I50), Py-3” value stood at 1.7 nanograms.
For `CC(C)=CC1C(C(=O)OCN2C(=O)C3=C(CCCC3)C2=O)C1(C)C` (mixture of isomers) [Tetramethrin, N-(3,4,5,6-tetrahydrophthalimino) methyl (dl)-cis,trans-chrysanthemate], the “Average 50% inhibition values (I50), Py-1” value in the data set on monoclonal antibody Py-1 is listed as over 600 nanograms.
Still for that read-out and setting: then `O=Cc1cccc(Oc2ccccc2)c1` [3-Phenoxybenzaldehyde], with 22 nanograms.
Turning to `C=CCC1=C(C)C(OC(=O)C2C(C=C(C)C)C2(C)C)CC1=O` (stereo not shown) [allethrin], in data set [2], the “stability in the air and water” value was “unstable character”.
Regarding `CC(C)[C@H](C(=O)OC(C#N)c1cccc(Oc2ccccc2)c1)c1ccc(OC(F)F)cc1` (stereo partly drawn) [Flucythranate, cyano(3-phenoxyphenyl)methyl(S)-4-(difluoromethoxy)-alpha-(1-methylethyl) benzeneacetate], the “Average 50% inhibition values (I50), Py-1” value in the data set on monoclonal antibody Py-1 is on record as 120 nanograms. In addition, in the data set on monoclonal antibody Py-4, the “Average 50% inhibition values (I50), Py-4” value is on record as 275 nanograms. Further, the “Average 50% inhibition values (I50), Py-3” value with monoclonal antibody Py-3 came to 45 nanograms.
